Assay results published in ChEMBL document CHEMBL3603809, “New Frontiers in Selective Human MAO-B Inhibitors” (J Med Chem, 2015).
pKi: −log10 of the molar value.

Columns and labels:
[1] = target: T1, Amine oxidase [flavin-containing] B (Homo sapiens, UniProt P27338); test: Inhibition of human MAOB
T1 sequence (P27338 whole entry): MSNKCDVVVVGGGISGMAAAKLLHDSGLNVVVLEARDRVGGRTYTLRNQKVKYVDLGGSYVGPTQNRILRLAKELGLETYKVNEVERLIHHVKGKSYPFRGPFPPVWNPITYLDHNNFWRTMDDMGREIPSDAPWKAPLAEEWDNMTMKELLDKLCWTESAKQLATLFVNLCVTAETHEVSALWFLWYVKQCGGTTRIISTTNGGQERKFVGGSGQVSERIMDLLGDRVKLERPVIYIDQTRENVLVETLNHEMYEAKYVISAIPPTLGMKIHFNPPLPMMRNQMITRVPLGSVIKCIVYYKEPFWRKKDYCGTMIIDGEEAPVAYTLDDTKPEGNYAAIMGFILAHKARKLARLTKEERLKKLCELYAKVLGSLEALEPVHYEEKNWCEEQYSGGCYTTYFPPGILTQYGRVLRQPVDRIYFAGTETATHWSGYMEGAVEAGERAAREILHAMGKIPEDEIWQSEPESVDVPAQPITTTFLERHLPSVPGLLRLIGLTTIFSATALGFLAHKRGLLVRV

Homo sapiens = organism: Homo sapiens; test: Selectivity index, ratio of Ki for human MAOA to Ki for human MAOB
[2] = target: T1, Amine oxidase [flavin-containing] B; test: Competitive inhibition of human liver MAOB expressed in Pichia pastoris
[3] = Inhibition of baboon MAOB; set-up: species or system Papio

Row | Compound | pKi [1] | further results
1 | CN(C)c1ccc(/N=C/c2ccccn2)cc1 | – | Ratio Ki (Homo sapiens): 3
2 | C(=C\Cc1ccccc1)/Cc1ccccc1 | – | pKi [2]: 7.46
3 | Cn1c(=O)c2c(nc(/C=C/C=C/c3cccc(Br)c3)n2C)n(C)c1=O | – | pKi [3]: 7.77
4 | C#CN(C)Cc1ccc(C(=O)NC2CC(C)(C)N([O])C(C)(C)C2)cc1 | 4.66 | –

Second part, led by results:

Row | pKi [1] | Compound | further results
5 | 7.17 | Cn1c(=O)c2c(nc(OCc3cccc(Br)c3)n2C)n(C)c1=O | –
6 | 7.21 | Cn1c(=O)c2c(nc(OCc3ccc(Br)cc3)n2C)n(C)c1=O | –
7 | 7.49 | C#CCN(C)c1nc2nc(CCC3CCN(Cc4ccccc4)CC3)ccc2c(-c2ccccc2)c1C#N | Ratio Ki (Homo sapiens): > 3
